Data from the supplement of paper PMC10307832.

What was measured:
Assay in all cases: relative viability (nuclei count vs DMSO), 5 days (fraction); higher = more cells survive
[1] = system: HCC-78
Outline: (§1)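 After 5 days of treatment, lung cancer cells in 1536-well plates were fixed and stained in a single step (final 0.05% Triton X-100, 1% formaldehyde, 1 ug/ml Hoechst) and their nuclei counted on 4× images. Treatment had been applied by pin tool the day after seeding as one drug alone or as a fixed anchor-drug dose with five library-drug doses (not always all listed) in √10 steps. Relative viability is the nuclei count of treated wells divided by that of vehicle wells, and values are medians of duplicate plates.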

[2] = system: NCI-H2126
Outline: as §1

[3] = system: NCI-H1915
Outline: as §1

[4] = system: NCI-H1755
Outline: as §1

[5] = system: SK-LU-1
Outline: as §1

[6] = system: LC-2-ad
Outline: as §1

[7] = system: RERF-LC-KJ
Outline: as §1

[8] = system: A-427
Outline: as §1

[9] = system: HOP-62
Outline: as §1

[10] = system: NCI-H1975
Outline: as §1

For `COc1cc2nccc(Oc3ccc(NC(=O)Nc4cc(C)on4)c(Cl)c3)c2cc1OC` [Tivozanib] + CS(=O)(=O)CCNCc1ccc(-c2ccc3ncnc(Nc4ccc(OCc5cccc(F)c5)c(Cl)c4)c3c2)o1 [Lapatinib] (partner 2 µM), the relative viability ([1]; first compound 0.005 µM) was 0.683, the relative viability ([1]; first compound 0.01581 µM) was 0.772 and the relative viability ([1]; first compound 0.05 µM) was 0.851. For the same molecule, the relative viability ([1]; first compound 0.1581 µM) was 1.58, the relative viability ([1]; first compound 0.5 µM) was 0.455 and the relative viability ([2]; first compound 0.005 µM) was 0.686. For the same molecule, the relative viability ([2]; first compound 0.01581 µM) was 0.784, the relative viability ([2]; first compound 0.05 µM) was 0.755 and the relative viability ([2]; first compound 0.1581 µM) was 0.559. For the same molecule, the relative viability ([2]; first compound 0.5 µM) was 0.774, the relative viability ([3]; first compound 0.005 µM) was 0.992 and the relative viability ([3]; first compound 0.01581 µM) was 0.928. The relative viability ([3]; first compound 0.05 µM) was 0.946, the relative viability ([3]; first compound 0.1581 µM) was 0.965 and the relative viability ([3]; first compound 0.5 µM) was 0.882. It also gave a relative viability ([4]; first compound 0.005 µM) of 0.945, a relative viability ([4]; first compound 0.01581 µM) of 0.991 and a relative viability ([4]; first compound 0.05 µM) of 1.03. The relative viability ([4]; first compound 0.1581 µM) was 1.02, the relative viability ([4]; first compound 0.5 µM) was 1.02 and the relative viability ([5]; first compound 0.005 µM) was 0.827. For the same molecule, the relative viability ([5]; first compound 0.01581 µM) was 0.809, the relative viability ([5]; first compound 0.05 µM) was 0.895 and the relative viability ([5]; first compound 0.1581 µM) was 0.704. For the same molecule, the relative viability ([5]; first compound 0.5 µM) was 0.738, the relative viability ([6]; first compound 0.005 µM) was 0.959 and the relative viability ([6]; first compound 0.01581 µM) was 0.944. It also gave a relative viability ([6]; first compound 0.05 µM) of 0.856, a relative viability ([6]; first compound 0.1581 µM) of 0.542 and a relative viability ([6]; first compound 0.5 µM) of 0.466. For the same molecule, the relative viability ([7]; first compound 0.005 µM) was 0.816, the relative viability ([7]; first compound 0.01581 µM) was 0.843 and the relative viability ([7]; first compound 0.05 µM) was 0.902. The relative viability ([7]; first compound 0.1581 µM) was 0.819, the relative viability ([7]; first compound 0.5 µM) was 0.834 and the relative viability ([8]; first compound 0.005 µM) was 1.02. For the same molecule, the relative viability ([8]; first compound 0.01581 µM) was 1.04, the relative viability ([8]; first compound 0.05 µM) was 1.04 and the relative viability ([8]; first compound 0.1581 µM) was 0.96. It also gave a relative viability ([8]; first compound 0.5 µM) of 1.06, a relative viability ([9]; first compound 0.005 µM) of 0.932 and a relative viability ([9]; first compound 0.01581 µM) of 0.944. It also gave a relative viability ([9]; first compound 0.05 µM) of 0.994, a relative viability ([9]; first compound 0.1581 µM) of 0.787 and a relative viability ([9]; first compound 0.5 µM) of 0.87. For the same molecule, the relative viability ([10]; first compound 0.005 µM) was 0.792, the relative viability ([10]; first compound 0.01581 µM) was 0.871 and the relative viability ([10]; first compound 0.05 µM) was 0.864. The relative viability ([10]; first compound 0.1581 µM) was 0.755 and the relative viability ([10]; first compound 0.5 µM) was 0.723.
